These results are taken from US12692223B2, “Phenyl-sulfamoyl-benzoic acid derivatives as ERAP1-modulators” (GREY WOLF THERAPEUTICS LIMITED, priority 2021, dated 2026).

The target of this experiment is T1, ERAP1 (Homo sapiens, UniProt Q9NZ08).
T1 construct: Purified ERAP1(37-941)-10His (ERAP1)
As to the kind of experiment: ERAP1 mediated hydrolysis of an amide substrate measured in a biochemical system (10-mer inhibition assay). The conditions noted are these: purified ERAP1(37-941)-10His; 10-mer substrate; 23° C. for 1 h; excitation 279 nm, emission 355 nm; read-out: IC50 vs Decapeptide WRVYEKC(Dnp)ALK-acid (where Dnp is Dinitrophenyl maleimide) (10-mer). Put shortly: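 Purified ERAP1(37-941)-10His in 25 mM Bis-tris propane, 0.05% HPMC, pH 7.75, with compound, then 100 μM 10-mer WRVYEKC(Dnp)ALK or 240 μM L-AMC added (stock concentrations before 1:1 mixing), 1 h at 23 °C. Fluorescence read at ex 279/em 355 nm (10-mer) or ex 365/em 442 nm (L-AMC); IC50 from 4-parameter fit.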

T1 sequence (Q9NZ08 37-941): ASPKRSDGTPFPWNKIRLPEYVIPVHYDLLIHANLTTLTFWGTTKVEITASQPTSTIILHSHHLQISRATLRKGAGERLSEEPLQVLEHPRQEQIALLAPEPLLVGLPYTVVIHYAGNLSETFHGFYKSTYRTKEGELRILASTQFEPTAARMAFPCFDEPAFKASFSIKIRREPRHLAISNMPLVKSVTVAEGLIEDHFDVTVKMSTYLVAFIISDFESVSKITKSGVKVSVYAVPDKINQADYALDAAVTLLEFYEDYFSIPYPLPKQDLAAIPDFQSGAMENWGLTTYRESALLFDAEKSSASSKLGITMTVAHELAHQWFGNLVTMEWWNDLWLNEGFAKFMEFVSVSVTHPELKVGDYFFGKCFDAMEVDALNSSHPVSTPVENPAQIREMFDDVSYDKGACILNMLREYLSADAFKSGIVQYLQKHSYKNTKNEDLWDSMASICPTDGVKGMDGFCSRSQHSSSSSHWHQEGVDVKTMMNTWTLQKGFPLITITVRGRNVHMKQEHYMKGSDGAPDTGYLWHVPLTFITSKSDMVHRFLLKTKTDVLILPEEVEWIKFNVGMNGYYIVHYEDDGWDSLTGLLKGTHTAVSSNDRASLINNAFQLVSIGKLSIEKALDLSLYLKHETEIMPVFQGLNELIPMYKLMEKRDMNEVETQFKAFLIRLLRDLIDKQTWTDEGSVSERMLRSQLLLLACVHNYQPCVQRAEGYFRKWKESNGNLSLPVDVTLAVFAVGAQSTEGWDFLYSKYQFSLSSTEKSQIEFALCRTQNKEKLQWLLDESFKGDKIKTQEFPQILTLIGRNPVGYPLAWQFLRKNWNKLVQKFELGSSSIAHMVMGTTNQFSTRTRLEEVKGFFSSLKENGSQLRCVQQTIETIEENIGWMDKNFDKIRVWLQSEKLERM

One may read the IC50 as the concentration that inhibits the measured activity by half. On to `COC1(COc2cc(Cl)c(C#N)cc2NS(=O)(=O)c2cc(C(=O)O)ccc2C2CC2)CCC1` [Example 87, 3-(N-(4-chloro-5-cyano-2-((1-methoxycyclobutyl)methoxy)phenyl)sulfamoyl)-4-cyclopropylbenzoic acid], for which the IC50 is less than 1 nM.

In the case of `CO[C@H]1C[C@H](Oc2cc(Cl)c(C#N)cc2NS(=O)(=O)c2cc(C(=O)O)ccc2C2CC2)C1` [Example 95, 3-(N-(4-chloro-5-cyano-2-(trans-3-methoxycyclobutoxy)phenyl)sulfamoyl)-4-cyclopropylbenzoic acid], the half-inhibitory concentration (IC50) was more than 5 nM.

In the case of `N#Cc1cc(NS(=O)(=O)c2cc(C(=O)O)ccc2C2CC2)c(O[C@H]2C[C@H](O)C2)cc1Cl` [Example 96, 3-(N-(4-chloro-5-cyano-2-(trans-3-hydroxycyclobutoxy)phenyl)sulfamoyl)-4-cyclopropylbenzoic acid], the half-maximal inhibitory concentration (IC50) is less than 1 nM.

With `N#Cc1cc(NS(=O)(=O)c2cc(C(=O)O)ccc2C2CC2)c(O[C@@H]2CCC[C@H]2O)cc1Cl` [Example 97, 3-(N-(4-chloro-5-cyano-2-(((1R,2R)−2-hydroxycyclopentyl)oxy)phenyl)sulfamoyl)-4-cyclopropylbenzoic acid], the half-maximal inhibitory concentration (IC50) was less than 1 nM.

`CC1(C)CC(C)(C)C1Oc1cc(Cl)c(C#N)cc1NS(=O)(=O)c1cc(C(=O)O)ccc1C1CC1` [Example 101, 3-(N-(4-chloro-5-cyano-2-(2,2,4,4-tetramethylcyclo-butoxy)phenyl)sulfamoyl)-4-cyclopropylbenzoic acid]: the IC50 is more than 5 nM.

In the case of `CO[C@@H]1CCC[C@H]1Oc1cc(Cl)c(C#N)cc1NS(=O)(=O)c1cc(C(=O)O)ccc1C1CC1` [Example 109, 3-(N-(4-chloro-5-cyano-2-(((1R,2R)-2-methoxycyclopentyl)oxy)phenyl)sulfamoyl)-4-cyclopropylbenzoic acid], the half-maximal inhibitory concentration (IC50) is less than 1 nM.

For `N#Cc1cc(NS(=O)(=O)c2cc(C(=O)O)ccc2C2CC2)c(O[C@H]2C[C@@H](O)C2)cc1Cl` [Example 112, 3-(N-(4-chloro-5-cyano-2-(cis-3-hydroxycyclobutoxy)phenyl)sulfamoyl)-4-cyclopropylbenzoic acid], the 50% inhibitory concentration (IC50) was more than 5 nM.

On to `CC1(C)CCC[C@H]1Oc1cc(F)c(-n2cnnn2)cc1NS(=O)(=O)c1cc(C(=O)O)ccc1C1CC1` [Example 125, (R)-4-cyclopropyl-3-(N-(2-((2,2-dimethylcyclopentyl)oxy)-4-fluoro-5-(1H-tetrazol-1-yl)phenyl)sulfamoyl)benzoic acid], for which the half-inhibitory concentration (IC50) was less than 1 nM.

For `N#Cc1cc(NS(=O)(=O)c2cc(C(=O)O)ccc2C2CC2)c(OC2CCC(F)(F)C2)cc1Cl` (stereo not drawn) [Example 134, 3-(N-(4-chloro-5-cyano-2-((3,3-difluorocyclopentyl)oxy)phenyl)sulfa-moyl)-4-cyclopropylbenzoic acid], the half-maximal inhibitory concentration (IC50) was less than 1 nM.
